Measured values reported in patent publication US10220021B2, “Methods for treating and preventing ocular diseases, disorders, and conditions with melanin and melanin analogs, precursors, and derivatives” (priority 2014, dated 2019).
Where two headings read alike, the source gives them in different places. Values belong to the molecule of their own block, whether it stands above or below them.

Assays:
[1] = system: leukoplakia and hyperemia of the eye; assay: Topical treatment of leukoplakia and hyperemia of the eye in a patient; type: in vivo, human; conditions: topical cortisone drops, two months, right eye
Text: The leukoplakia was hypothesized to be the result of excessive sun exposure and chemicals. The patient was initially treated with topical cortisone drops, and the cortisone treatment continued for two months.
One month subsequent to stopping cortisone treatment, the patient underwent treatment with a 3% aqueous solution of melanin (w/v) that was topically applied in the form of eye drops. The aqueous solution was produced by mixing water and chemically synthesized melanin (synthetic melanin). […] Three to four drops (about 50 μL per drop) of the 3% aqueous melanin solution were administered for each application, and the solution was applied four times per day at approximately six hour intervals. […] The same dosing regimen was used over the entire course of the treatment.

[2] = system: eyes of healthy rats; conditions: rat, in vivo
Method: The effect of subconjunctival injection of melanin into the eyes of healthy rats was tested. Rats were put under general anesthesia by intraperitoneal injection of barbiturates. A total of five rats were used in the study. Then, 500 μL of a 3% aqueous melanin solution was administered to the right eye of each of the rats by subconjunctival injection. The left eye was left untreated.

[3] = system: hyphema in rabbits; conditions: rabbit, in vivo; cited from earlier work
[4] = system: cornea of the right eye of a Wistar rat; conditions: cited from earlier work; for Observation in Treated Eye: Angiogenesis / Observation in Treated Eye: Corneal Keratoconus / Observation in Treated Eye: No Change: 10 μL topically once, 5 rats treated, one week

Molecule: C[C@]12CCC(=O)C=C1CC[C@@H]1[C@@H]2C(=O)C[C@@]2(C)[C@H]1CC[C@]2(O)C(=O)CO [cortisone]
improvement of leukoplakia and hyperemia [1]: no improvement

appearance of treated eyes immediately after injection [2]: increase in size and some distortion
visible marks on the ocular tissue at the injection site [2]: no visible marks
Molecule: melanin
visible signs of inflammation, irritation, or subconjunctival bleeding [2]: nor were any visible signs of inflammation, irritation, or subconjunctival bleeding observed
incidence of rebleeds [3]: increase

Molecule: Oc1ccccc1 [Phenol, phenol]
formation of new blood vessels in the cornea ([4]; all concentrations of phenol tested (0.1 M to 8.5 M), at least one rat in each group, one week after application): new blood vessels began to form in the cornea
changes associated with corneal ectasia, particularly corneal keratoconus ([4]; higher concentrations of phenol (e.g., 3.0 M, 5.6 M, and 8.5 M)): observed in some of the rats
Observation in Treated Eye: Angiogenesis ([4]; phenol 0.1M): 1 Number of Rats
Observation in Treated Eye: Corneal Keratoconus ([4]; phenol 0.1M): 0 Number of Rats
Observation in Treated Eye: No Change ([4]; phenol 0.1M): 4 Number of Rats
Observation in Treated Eye: Angiogenesis ([4]; phenol 0.5M): 1 Number of Rats
Observation in Treated Eye: Corneal Keratoconus ([4]; phenol 0.5M): 0 Number of Rats
Observation in Treated Eye: No Change ([4]; phenol 0.5M): 4 Number of Rats
Observation in Treated Eye: Angiogenesis ([4]; phenol 1.0M): 3 Number of Rats
Observation in Treated Eye: Corneal Keratoconus ([4]; phenol 1.0M): 0 Number of Rats
Observation in Treated Eye: No Change ([4]; phenol 1.0M): 2 Number of Rats
Observation in Treated Eye: Angiogenesis ([4]; phenol 3.0M): 4 Number of Rats
Observation in Treated Eye: Corneal Keratoconus ([4]; phenol 3.0M): 2 Number of Rats
Observation in Treated Eye: No Change ([4]; phenol 3.0M): 1 Number of Rats
Observation in Treated Eye: Angiogenesis ([4]; phenol 6.5M): 4 Number of Rats
Observation in Treated Eye: Corneal Keratoconus ([4]; phenol 6.5M): 2 Number of Rats
Observation in Treated Eye: No Change ([4]; phenol 6.5M): 1 Number of Rats
Observation in Treated Eye: Angiogenesis ([4]; phenol 8.5M): 3 Number of Rats
Observation in Treated Eye: Corneal Keratoconus ([4]; phenol 8.5M): 1 Number of Rats
Observation in Treated Eye: No Change ([4]; phenol 8.5M): 2 Number of Rats
